Legend:
NM-associated SIRT1 = test: NM association of SIRT1 in BMSCs (subcellular fractionation, Western blotting); format: cell-based, mouse; details: wild-type and Zmpste24−/− BMSCs, different concentrations, compared to untreated controls
Description: Cells were fractionated as described (Mendez and Stillman, 2000). Briefly, the cells were suspended in 100 μl ice-cold buffer A (10 mM HEPES, pH 7.9, 10 mM KCl, 1.5 mM MgCl2, 0.34 M sucrose, 10% glycerol, 1 mM DTT, protease inhibitors). After the addition of 0.1% Triton X-100, the cell suspension was mixed gently, incubated on ice for 5 min and centrifuged at 1300×g at 4° C. for 4 min. The supernatant (S1) was transferred to a new tube and clarified by high-speed centrifugation (12000×g, 10 min, 4° C.). The remaining nuclei pellet (P1) was washed once with 100 μl buffer A and then resuspended in 100 μl buffer A supplemented with 1 mM CaCl2 and 2 units of micrococcal nuclease, and incubated at 37° C. for 15 min. The reaction was stopped by adding 1 mM EGTA and the suspension was then centrifuged at 1300×g at 4° C. for 4 min. The resultant pellet was resuspended in 100 μl of buffer B (3 mM EDTA, 0.2 mM EGTA, 1 mM DTT) and centrifuged at 1700×g at 4° C. for 4 min. […]
Western blotting was performed as described previously (Liu et al., 2005). Relative band intensity was measured by IMAGE J® and normalized to corresponding wild-type or untreated controls as indicated. […]

Zmpste24−/− mice [1] = test: BMSC colony-forming efficiency after in vivo treatment of Zmpste24−/− mice; set-up: species or system mouse; details: resveratrol 20 μg/ml in drinking water, four months, vs vehicle
Description: (§1) Zmpste24^−/− mice have been described previously (Pendas et al., 2002). Mouse experimentation was performed in accordance with the guidelines of the Committee on the Use of Live Animals in Teaching and Research (CULATR) at the University of Hong Kong. New-born Zmpste24^−/− mice and wild-type controls were fed with resveratrol (20 μg/ml) or N-acetyl Cysteine (1 mg/ml) in drinking water. The survival of resveratrol-treated, NAC-treated, or vehicle-treated Zmpste24^−/− mice was recorded and their body weight was monitored weekly. The trabecular bone organization and bone mineral density were determined by micro-CT. The survival rate was analyzed by Kaplan-Meier method and statistical comparison was performed by Log-rank (Mantel-Cox) Test.
Bone marrow stromal cells were isolated and cultured according to modified protocol (Enumeration and Expansion of Mouse Mesenchymal Progenitor Cells Using MESENCUILT®, Stemcell Technologies, Canada). Briefly, bone marrow cells were flushed out from femurs and tibias with α-MEM (Invitrogen, Carlsbad, Calif., USA) supplemented with 20% FBS, and plated in petri dishes. Non-adherent cells were removed on day 3 and medium was replaced every 3 days. […] Colonies containing more than 50 cells were counted. BMSC colony forming efficiency was calculated as number of colonies formed by […] bone marrow nucleated cells. […]

Zmpste24−/− mice [2] = test: Catalase, acetyl p53 and H3K9ac levels in BMSCs isolated from treated Zmpste24−/− mice; format: in vivo, mouse; details: resveratrol 20 μg/ml in drinking water
Description: as §1
Western blotting was performed as described previously (Liu et al., 2005). Relative band intensity was measured by IMAGE J® and normalized to corresponding wild-type or untreated controls as indicated.
Briefly, resveratrol was supplemented at a concentration of 20 μg/ml in drinking water. Four months after treatment, BMSCs were collected for examination and comparison between resveratrol-treated and vehicle-treated Zmpste24^−/− mice.

SIRT1 = molecular target: T1, SIRT1 (Homo sapiens, UniProt Q96EB6); details: cited from earlier work
T1 sequence (Q96EB6 1-747): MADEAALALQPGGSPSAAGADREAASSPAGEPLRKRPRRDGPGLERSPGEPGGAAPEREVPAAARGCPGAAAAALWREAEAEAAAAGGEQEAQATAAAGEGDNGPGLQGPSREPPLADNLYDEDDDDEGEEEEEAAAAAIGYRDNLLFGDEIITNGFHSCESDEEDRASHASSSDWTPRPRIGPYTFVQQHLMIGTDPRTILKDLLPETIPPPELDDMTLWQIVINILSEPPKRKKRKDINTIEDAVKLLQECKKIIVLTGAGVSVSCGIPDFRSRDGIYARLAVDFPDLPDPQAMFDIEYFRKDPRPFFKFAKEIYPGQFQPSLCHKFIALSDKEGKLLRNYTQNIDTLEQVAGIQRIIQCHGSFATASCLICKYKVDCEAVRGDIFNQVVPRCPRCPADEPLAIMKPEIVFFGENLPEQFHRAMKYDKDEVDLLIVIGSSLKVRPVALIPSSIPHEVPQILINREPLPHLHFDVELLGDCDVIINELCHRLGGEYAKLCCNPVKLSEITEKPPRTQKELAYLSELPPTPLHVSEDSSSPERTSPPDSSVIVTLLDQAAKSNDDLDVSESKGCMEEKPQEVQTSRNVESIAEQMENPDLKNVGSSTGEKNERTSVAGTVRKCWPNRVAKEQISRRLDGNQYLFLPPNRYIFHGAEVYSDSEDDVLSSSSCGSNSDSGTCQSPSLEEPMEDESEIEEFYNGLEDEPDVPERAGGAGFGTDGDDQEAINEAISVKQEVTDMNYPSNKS

In the case of `Oc1ccc(C=Cc2cc(O)cc(O)c2)cc1` [resveratrol], the “NM-associated SIRT1” value (NM-associated SIRT1) was “increased”, the BMSC colony-forming efficiency (Zmpste24−/− mice [1]) was “significantly increased” and the “level of acetyl H3K9 in BMSCs” value (Zmpste24−/− mice [2]) was “decreased”. The “level of acetyl p53 in BMSCs” value (Zmpste24−/− mice [2]) was “decreased”, the “level of catalase in BMSCs” value (Zmpste24−/− mice [2]) was “enhanced” and the “SIRT1 activation towards full-length native target proteins, including p53 and PGC-1α” value (SIRT1; Beher 2009, Dai 2010, Pacholec 2010) was “do not confer any SIRT1 activation”. The “SIRT1 activity towards fluorophore-conjugated synthetic peptide (Ac-Arg-His-Lys-LysAc-AMC) rather than the unmodified one” value (SIRT1; Borra et al., 2005, Kaeberlein et al.) was “specifically enhances”.
